Laboratory results from ChEMBL document CHEMBL5365447, “Pronucleotides of 2',3'-Dideoxy-2',3'-Didehydrothymidine as Potent Anti-HIV Compounds” (J Med Chem, 2023).
Calls of active or inactive are those of the source. No cut-off for these calls is given here.

Experiments:
[1] = Prodrug conversion in human CEM/0 cell extract assessed as ((2S,5R)-5-(5-methyl-2,4-dioxo-3,4-dihydropyrimidin-1(2H)-yl)-2,5-dihydrofuran-2-yl)methyl tri-hydrogen diphosphate formation by HPLC analysis; type: ADME; conditions: ccrf-cem
[2] = Retention time of the compound by HPLC analysis; type: physicochemical
[3] = Cytotoxicity against human CEM cells assessed as reduction in cell viability incubated for 4 to 5 days by light microscopic analysis; type: toxicity, cell-based; conditions: CEM cells (CCRF-CEM), time 4-5 day
[4] = molecular target: T1, DNA polymerase alpha catalytic subunit (Homo sapiens) (UniProt P09884); assay: Substrate activity at human DNA polymerase alpha measured after 4 hrs by electrophoresis based primer extension assay
T1 sequence (whole entry): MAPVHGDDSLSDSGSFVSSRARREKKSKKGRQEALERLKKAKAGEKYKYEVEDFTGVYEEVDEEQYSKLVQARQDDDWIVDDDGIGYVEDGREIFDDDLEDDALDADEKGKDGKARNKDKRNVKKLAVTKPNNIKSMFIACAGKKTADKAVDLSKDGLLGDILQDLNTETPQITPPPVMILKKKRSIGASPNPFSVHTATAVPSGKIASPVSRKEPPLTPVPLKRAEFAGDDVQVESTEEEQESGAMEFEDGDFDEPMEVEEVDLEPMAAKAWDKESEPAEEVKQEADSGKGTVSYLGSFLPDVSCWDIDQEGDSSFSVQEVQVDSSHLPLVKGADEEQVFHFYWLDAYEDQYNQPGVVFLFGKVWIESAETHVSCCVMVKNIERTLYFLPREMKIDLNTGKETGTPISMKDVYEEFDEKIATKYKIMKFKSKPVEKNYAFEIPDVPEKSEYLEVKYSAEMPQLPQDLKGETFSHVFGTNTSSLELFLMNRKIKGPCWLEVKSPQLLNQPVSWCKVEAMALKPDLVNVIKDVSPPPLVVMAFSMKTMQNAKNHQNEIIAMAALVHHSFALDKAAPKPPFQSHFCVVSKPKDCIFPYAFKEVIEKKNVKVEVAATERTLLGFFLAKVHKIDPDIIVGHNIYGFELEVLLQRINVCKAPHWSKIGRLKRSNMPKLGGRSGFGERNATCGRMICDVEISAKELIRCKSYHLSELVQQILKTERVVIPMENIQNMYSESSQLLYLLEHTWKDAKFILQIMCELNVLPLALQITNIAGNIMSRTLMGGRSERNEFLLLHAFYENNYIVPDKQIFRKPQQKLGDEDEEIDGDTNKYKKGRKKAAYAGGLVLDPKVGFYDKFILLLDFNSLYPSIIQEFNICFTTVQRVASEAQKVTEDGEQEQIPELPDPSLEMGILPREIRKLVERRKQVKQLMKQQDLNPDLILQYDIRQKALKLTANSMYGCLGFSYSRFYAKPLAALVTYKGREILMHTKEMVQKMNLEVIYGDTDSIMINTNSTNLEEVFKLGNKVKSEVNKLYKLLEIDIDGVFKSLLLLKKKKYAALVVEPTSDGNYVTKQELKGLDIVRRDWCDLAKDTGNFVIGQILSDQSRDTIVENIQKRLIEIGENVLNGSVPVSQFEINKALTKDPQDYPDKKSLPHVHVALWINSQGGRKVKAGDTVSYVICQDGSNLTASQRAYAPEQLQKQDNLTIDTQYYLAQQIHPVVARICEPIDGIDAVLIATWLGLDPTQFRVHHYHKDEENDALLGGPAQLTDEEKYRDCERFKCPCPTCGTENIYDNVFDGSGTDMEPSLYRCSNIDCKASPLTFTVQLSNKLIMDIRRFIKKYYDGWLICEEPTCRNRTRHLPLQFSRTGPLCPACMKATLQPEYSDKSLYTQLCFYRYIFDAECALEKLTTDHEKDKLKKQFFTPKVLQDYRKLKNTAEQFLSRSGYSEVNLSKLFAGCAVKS

[5] = test system: Human immunodeficiency virus; assay: Substrate activity at HIV reverse transcriptase measured after 4 hrs by electrophoresis based primer extension assay
[6] = molecular target: T2, DNA polymerase subunit gamma-1 (Homo sapiens) (UniProt P54098); assay: Substrate activity at human DNA polymerase gamma measured after 4 hrs by electrophoresis based primer extension assay
T2 sequence (whole entry): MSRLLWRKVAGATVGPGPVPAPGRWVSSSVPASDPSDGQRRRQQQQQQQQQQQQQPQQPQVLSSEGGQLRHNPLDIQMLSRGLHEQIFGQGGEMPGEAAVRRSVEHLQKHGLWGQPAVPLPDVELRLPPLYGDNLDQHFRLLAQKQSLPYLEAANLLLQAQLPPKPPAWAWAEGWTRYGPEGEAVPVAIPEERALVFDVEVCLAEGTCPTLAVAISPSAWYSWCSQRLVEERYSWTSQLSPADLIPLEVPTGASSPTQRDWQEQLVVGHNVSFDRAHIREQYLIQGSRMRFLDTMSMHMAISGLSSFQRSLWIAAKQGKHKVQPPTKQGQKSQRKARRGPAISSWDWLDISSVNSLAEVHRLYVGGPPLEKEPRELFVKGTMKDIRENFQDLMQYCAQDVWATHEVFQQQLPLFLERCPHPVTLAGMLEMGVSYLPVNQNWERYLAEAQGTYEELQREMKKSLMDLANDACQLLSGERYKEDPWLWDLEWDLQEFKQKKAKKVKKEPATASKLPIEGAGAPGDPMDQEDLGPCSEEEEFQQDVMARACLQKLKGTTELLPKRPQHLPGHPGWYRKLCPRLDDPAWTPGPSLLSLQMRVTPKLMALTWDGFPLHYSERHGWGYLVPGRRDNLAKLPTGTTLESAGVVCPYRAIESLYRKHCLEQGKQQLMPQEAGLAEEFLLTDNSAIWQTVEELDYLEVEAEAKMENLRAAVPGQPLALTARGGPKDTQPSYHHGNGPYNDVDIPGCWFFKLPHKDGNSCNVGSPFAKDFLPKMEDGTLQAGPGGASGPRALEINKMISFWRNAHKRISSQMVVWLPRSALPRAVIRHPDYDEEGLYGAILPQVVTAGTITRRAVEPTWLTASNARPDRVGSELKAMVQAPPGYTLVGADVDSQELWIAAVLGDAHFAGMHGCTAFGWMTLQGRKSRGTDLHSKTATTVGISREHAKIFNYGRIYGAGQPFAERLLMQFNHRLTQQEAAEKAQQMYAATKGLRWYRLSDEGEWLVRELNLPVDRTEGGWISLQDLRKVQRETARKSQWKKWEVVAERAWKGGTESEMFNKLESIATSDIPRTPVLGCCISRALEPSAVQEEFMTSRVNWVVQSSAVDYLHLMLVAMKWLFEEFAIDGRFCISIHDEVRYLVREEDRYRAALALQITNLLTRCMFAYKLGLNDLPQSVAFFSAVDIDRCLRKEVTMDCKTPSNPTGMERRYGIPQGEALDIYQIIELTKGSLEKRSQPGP

[7] = molecular target: DNA polymerase beta (Homo sapiens) (UniProt P06746); assay: Substrate activity at human DNA polymerase beta measured after 4 hrs by electrophoresis based primer extension assay
[8] = Prodrug conversion in human CEM/0 cell extract assessed as metabolite formation by measuring half life by HPLC analysis; type: ADME; conditions: ccrf-cem
[9] = Chemical stability of the compound in phosphate buffer assessed as half life at pH 7.3 by HPLC analysis; type: physicochemical
[10] = Prodrug conversion in pH 7.3 phosphate buffer assessed as ((2S,5R)-5-(5-methyl-2,4-dioxo-3,4-dihydropyrimidin-1(2H)-yl)-2,5-dihydrofuran-2-yl)methyl tri-hydrogen diphosphate formation by measuring half life in presence of pig liver esterase by HPLC analysis; type: ADME
[11] = Prodrug conversion in human CEM/0 cell extract assessed as ((2S,5R)-5-(5-methyl-2,4-dioxo-3,4-dihydropyrimidin-1(2H)-yl)-2,5-dihydrofuran-2-yl)methyl tetrahydrogen triphosphate formation by HPLC analysis; type: ADME; conditions: ccrf-cem
[12] = test system: Human immunodeficiency virus 2; assay: Antiviral activity against HIV-2 ROD infected in thymidine kinase-deficient human CEM cells assessed as inhibition of virus-induced cytopathic effect incubated for 4 to 5 days by light microscopic analysis; type: functional, organism-based; conditions: Human immunodeficiency virus 2, ROD, CCRF-CEM
[13] = Chemical stability of the compound in phosphate buffer saline assessed as half life at pH 7.3 by HPLC analysis; type: physicochemical; conditions: phosphate buffered saline
[14] = Prodrug conversion in pH 7.3 phosphate buffer assessed as ((2S,5R)-5-(5-methyl-2,4-dioxo-3,4-dihydropyrimidin-1(2H)-yl)-2,5-dihydrofuran-2-yl)methyl dihydrogen phosphate formation by measuring half life in presence of pig liver esterase by HPLC analysis; type: ADME
[15] = Prodrug conversion in human CEM/0 cell extract assessed as ((2S,5R)-5-(5-methyl-2,4-dioxo-3,4-dihydropyrimidin-1(2H)-yl)-2,5-dihydrofuran-2-yl)methyl dihydrogen phosphate formation by HPLC analysis; type: ADME; conditions: ccrf-cem
[16] = test system: Human immunodeficiency virus 2; assay: Antiviral activity against HIV-2 ROD infected in wild-type human CEM/0 cells assessed as inhibition of virus-induced cytopathic effect incubated for 4 to 5 days by light microscopic analysis; type: functional, organism-based; conditions: Human immunodeficiency virus 2, ROD, CCRF-CEM
[17] = Selectivity index, ratio of CC50 for human CEM cells to EC50 for HIV-2 ROD infected in thymidine kinase-deficient human CEM cells; type: toxicity; conditions: read-out: Ratio CC50/EC50
[18] = test system: Human immunodeficiency virus 1; assay: Antiviral activity against HIV-1 HE infected in wild-type human CEM/0 cells assessed as inhibition of virus-induced cytopathic effect incubated for 4 to 5 days by light microscopic analysis; type: functional, organism-based; conditions: Human immunodeficiency virus 1, HE, CCRF-CEM
[19] = test system: Human immunodeficiency virus 2; assay: Potency index, ratio of 3'-deoxy-2',3'-dehydrothymidine EC50 to compound EC50 for antiviral activity against HIV-2 ROD infected in wild-type human CEM/0 cells; type: functional
[20] = test system: Human immunodeficiency virus 2; assay: Potency index, ratio of 3'-deoxy-2',3'-dehydrothymidine EC50 to compound EC50 for antiviral activity against HIV-2 ROD infected in thymidine kinase-deficient human CEM[…] cells; type: functional
[21] = test system: Human immunodeficiency virus 1; assay: Potency index, ratio of 3'-deoxy-2',3'-dehydrothymidine EC50 to compound EC50 for antiviral activity against HIV-1 HE infected in wild-type human CEM/0 cells; type: functional

SMILES	Drug metabolism [1]	Retention_time [2] [min]	Activity [4]	Activity [6]	Activity [7]	EC50 [12] [nM]	half-life [13] [days]	Drug metabolism [15]	EC50 [16] [nM]	EC50 [18] [nM]	CC50 [3] [nM]	Activity [5]	t1/2 [8] [h]	half-life [9] [h]	t1/2 [10] [h]	Drug metabolism [11]	selectivity ratio [17]	t1/2 [14] [h]	also measured
CCCCCCCCCCCCCCCCCCP(=O)(OCCCC)OP(=O)(O)OP(=O)(O)OC[C@@H]1C=C[C@H](n2cc(C)c(=O)[nH]c2=O)O1.N.N (stereo not given in full)	Metabolite_Detected	15.9	inactive	inactive	inactive	–	–	–	–	–	33000	inactive	> 15	> 1700	> 150	Metabolite_Notdetected	–	–	–
CCCCCCCCCCCCCCCCCCOP(=O)(OCCCC)OP(=O)(O)OP(=O)(O)OC[C@@H]1C=C[C@H](n2cc(C)c(=O)[nH]c2=O)O1.N.N (stereo not given in full)	Metabolite_Detected	16.2	inactive	inactive	inactive	–	–	–	–	–	30000	Active	> 10	990	> 150	Metabolite_Notdetected	938	–	Ratio EC50 [19]: 4; Ratio EC50 [20]: 10000; Ratio EC50 [21]: 4
CCCCCCCCCCCCCCCCCCP(=O)(OCCCC)OP(=O)(O)OC[C@@H]1C=C[C@H](n2cc(C)c(=O)[nH]c2=O)O1.N (stereo not given in full)	Metabolite_Notdetected	18.5	inactive	inactive	inactive	2	> 125	Metabolite_Detected	16	31	42600	Active	> 40	–	–	–	20300	> 150	–

Continued, in another order:

Drug metabolism [1]	Retention_time [2] [min]	Activity [4]	Activity [6]	Activity [7]	EC50 [12] [nM]	half-life [13] [days]	Drug metabolism [15]	EC50 [16] [nM]	EC50 [18] [nM]	SMILES	CC50 [3] [nM]	Activity [5]	t1/2 [8] [h]	half-life [9] [h]	t1/2 [10] [h]	Drug metabolism [11]	selectivity ratio [17]	t1/2 [14] [h]	also measured
Metabolite_Notdetected	20.8	inactive	inactive	inactive	11	> 41.7	Metabolite_Detected	45	71	CCCCCCCCCCCCCCCCCCOP(=O)(OCCCCCCCC)OP(=O)(O)OC[C@@H]1C=C[C@H](n2cc(C)c(=O)[nH]c2=O)O1.N (stereo not given in full)	46500	–	–	–	–	–	4220	–	Drug metabolism [14]: Metabolite_Notdetected; Drug metabolism [8]: Metabolite_Notdetected
Metabolite_Notdetected	18.9	inactive	inactive	inactive	1	> 41.7	Metabolite_Detected	4	33	CCCCCCCCCCCCCCCCCCOP(=O)(OCCCC)OP(=O)(O)OC[C@@H]1C=C[C@H](n2cc(C)c(=O)[nH]c2=O)O1.N (stereo not given in full)	41300	inactive	> 18	–	–	–	37500	> 150	–
